Measured values: patent EP4703354A1, “COMPOUND AS CCR6 ANTAGONIST, AND PHARMACEUTICAL COMPOSITION AND USE THEREOF” (Wuhan Createrna Science and Technology Co.,Ltd., priority 2023, dated 2024)

Columns and labels:
[1] = in vitro liver microsome metabolic stability, human; type: in vitro ADME; conditions: Human liver microsomes, 37°C
Summary of the method: (§1)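 Test compound at 1 µM final (100 µM working solution diluted 1:100) incubated at 37°C with liver microsomes in pH 7.4 phosphate buffer with NADP/G6P/G6PDH/MgCl2 regenerating system; sampled 0–30 min, LC-MS/MS vs internal standard. T1/2 = 0.693/k from remaining-fraction decay.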

[2] = in vitro liver microsome metabolic stability, rat; type: in vitro ADME; conditions: Rat liver microsomes, 37°C
Summary of the method: as §1

[3] = in vitro liver microsome metabolic stability, beagle dog; type: in vitro ADME; conditions: Beagle dog liver microsomes, 37°C
Summary of the method: as §1

[4] = in vitro liver microsome metabolic stability, mouse; type: in vitro ADME; conditions: Mouse liver microsomes, 37°C
Description: Preparation of working solutions for test compounds and standards: An appropriate amount of the compound was accurately weighed and dissolved in a corresponding volume of suitable solvent to prepare 1 mM stock solutions of the test compounds and standards. The stock solutions were then diluted with appropriate solvent to obtain 100 µM working solutions of the test compounds, ensuring that the DMSO content in the working solutions remained below 10%.
The internal standard compound testosterone (or tolbutamide) and its corresponding solvent, internal standard concentration (200 ng/mL), were selected based on the properties of the test compound.
• Solution A: 0.1 mol/L K2HPO4 (2.28 g K2HPO4·3H2O was dissolved in 100 mL of double-distilled water); • Solution B: 0.1 mol/L KH2PO4 (1.36 g KH2PO4 was dissolved in 100 mL of double-distilled water); • 80.2 mL of Solution A and 19.8 mL of Solution B were mixed thoroughly, and the pH was adjusted to 7.4.
37.5 mg of glycine was weighed, dissolved in 100 mL of ultrapure water, and adjusted to pH 8.0 with NaOH.
1.25 mg of glucose-6-phosphate dehydrogenase (400 U/mg) was weighed (the specific amount weighed was calculated based on the activity of the purchased glucose-6-phosphate dehydrogenase), dissolved in 1 mL of glycine buffer to a concentration of 500 U/mL, aliquoted into 20 µL per tube, and stored at -20°C for future use.
7.83 mg of NADP, 0.06 mL of D-glucose-6-phosphate (260 mg/mL), and 10.17 mg of MgCl2·6H2O were precisely weighed.
The mixture was dissolved in 1 mL of pure water. The cofactor ratio composition: NADP 10 mM, D-glucose-6-phosphate 60 mM, MgCl2·6H2O 50 mM.
The reaction system (taking a 500 µL system as an example) was composed of the following solution ratios: 416.5 µL phosphate buffer, 5 µL compound working solution, 25 µL liver microsomes, 3.5 µL glucose-6-phosphate dehydrogenase, and 50 µL cofactor solution. The total incubation volume could be adjusted according to experimental requirements.
416.5 µL of phosphate buffer was taken, 25 µL of liver microsomes, 3.5 µL of glucose-6-phosphate dehydrogenase, and 50 µL of cofactor solution were added, vortexed twice to mix, and preincubated in a 37°C water bath for 5 minutes. Then, 5 µL of the test compound working solution was added, vortexed twice to mix, each time for 2-3 seconds, and placed in a 37°C water bath to initiate the reaction, with two parallel samples set. At 0.5 min, 1 min, 2 min, 5 min, 15 min, and 30 min after the reaction, 50 µL of the mixture was taken and added to centrifuge tubes containing 200 µL of 0°C pre-cooled internal standard working solution to terminate the reaction, vortexed for 1 minute to mix, and centrifuged at 13,000 rpm for 10 minutes in a 4°C pre-cooled high-speed centrifuge. The supernatant was collected for analysis. After the compound was added and vortex-mixed, 50 µL of the mixture was rapidly transferred to a centrifuge tube containing 200 µL of a pre-cooled (0°C) internal standard working solution to terminate the reaction, vortex-mixed for 1 minute, and used as the relative zero-point sample (relative to the standard group). The sample was then placed into a 37°C water bath to initiate the reaction, and timing was started.
The sample analysis of the test compound was performed using the liquid chromatography-tandem mass spectrometry (LCMS/MS) method. The semi-quantitative determination was performed using the ratio of the analyte peak area to the internal standard peak area. The retention times of the analyte and internal standard, chromatogram acquisition, and chromatogram integration were processed using Analyst software.
The in vitro elimination rate constant k of the test compound and the control compound was determined by converting the ratio of the peak area of the test compound to the internal standard into the remaining rate, and T1/2 was then calculated according to the following formula. T1/2 = (Ln2)/(k) = (0.693)/(k) [formula] Table 3. […]

[5] = in vivo pharmacokinetic study in SD rats; conditions: male, rat, plasma; for bioavailability: 1 mg/kg PO vs 1 mg/kg IV, read-out: Oral bioavailability F (%); for AUC(0-t) / Cmax / half-life: 1 mg/kg
Summary of the method: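 Male SD rats (180-200 g), 3 per route: single fasted oral gavage in 1% Tween 80 or tail-vein IV bolus in 50% PEG400. Orbital blood into EDTA-K2 sampled to 8 h; plasma analysed and PK parameters derived by non-compartmental analysis.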

## CC#C[C@H](Nc1c(Nc2ccnc(C(=O)N(C)C)c2O)c(=O)c1=O)C1(C)CCCC1 [compound 113, (R)-3-hydroxy-N, N-dimethyl-4-((2-((1-(1-methylcyclopentyl)but-2-yn-1-yl)amino)-3,4-dioxocyclobut-1-en-1-yl)amino)picolinamide]
[1]
  Liver microsome T1-2 (min) Human: 577.09 min
[2]
  Liver microsome T1-2 (min) Rat: 124.51 min
[3]
  Liver microsome T1-2 (min) Beagle dog: 520.59 min

## CN(C)C(=O)c1nccc(Nc2c(N[C@@H](C#CC3CC3)C3(C)CCCC3)c(=O)c2=O)c1O [compound 115, (R)-4-((2-((3-cyclopropyl-1-(1-methylcyclopentyl)prop-2-yn-1-yl)amino)-3,4-dioxocyclobut-1-en-1-yl)amino)-3-hydroxy-N,N-dimethylpicolinamide]
[1]
  Liver microsome T1-2 (min) Human: 247.27 min
[2]
  Liver microsome T1-2 (min) Rat: 114.18 min
[4]
  Liver microsome T1-2 (min) Mouse: 1889.54 min
[3]
  Liver microsome T1-2 (min) Beagle dog: 1110.44 min

## Cc1cc(F)cnc1[C@H](Nc1c(Nc2ccnc(C(=O)N(C)C)c2O)c(=O)c1=O)[C@]1(C)CC(F)(F)CO1 [093A, 4-((2-(((S)-((S)-4,4-difluoro-2-methyltetrahydrofuran-2-yl)(5-fluoro-3-methylpyridin-2-yl)methyl)amino)-3,4-dioxocyclobut-1-en-1-yl)amino)-3-hydroxy-N,N-dimethylpicolinamide]
[1]
  Liver microsome T1-2 (min) Human: 359.51 min
[2]
  Liver microsome T1-2 (min) Rat: 110.15 min
[5]
  bioavailability: 23.7%
[5]; IV
  AUC(0-t): 1240 ng·h/mL
  Cmax: 4840 ng/mL
  half-life: 14.4 min
[5]; PO
  AUC(0-t): 295 ng·h/mL
  Cmax: 271 ng/mL
  half-life: 66 min
[3]
  Liver microsome T1-2 (min) Beagle dog: 104.27 min

## CN(C)C(=O)c1nccc(Nc2c(N[C@@H](c3ccc(F)cn3)C3(C)CCCC3)c(=O)c2=O)c1O [compound 005, (R)-4-((2-(((5-fluoropyridin-2-yl)(1-methylcyclopentyl)methyl)amino)-3,4-dioxocyclobut-1-en-1-yl)amino)-3-hydroxy-N,N-dimethylpicolinamide]
[1]
  Liver microsome T1-2 (min) Human: 431.17 min
[2]
  Liver microsome T1-2 (min) Rat: 101.29 min
[4]
  Liver microsome T1-2 (min) Mouse: 1188.6 min
[3]
  Liver microsome T1-2 (min) Beagle dog: 254.48 min

## CN(C)C(=O)c1nccc(Nc2c(N[C@@H](c3cccc(Cl)n3)C3(C)CCCC3)c(=O)c2=O)c1O [compound 003, (R)-4-((2-(((6-chloropyridin-2-yl)(1-methylcyclopentyl)methyl)amino)-3,4-dioxocyclobut-1-en-1-yl)amino)-3-hydroxy-N,N-dimethylpicolinamide]
[1]
  Liver microsome T1-2 (min) Human: 511.95 min
[2]
  Liver microsome T1-2 (min) Rat: 93.67 min

## CN(C)C(=O)c1nccc(Nc2c(N[C@@H](C#CC3CCC3)[C@]3(C)CC(F)(F)CO3)c(=O)c2=O)c1O (single isomer, unassigned) [110A]
[1]
  Liver microsome T1-2 (min) Human: 641.85 min
[2]
  Liver microsome T1-2 (min) Rat: 292.82 min
[5]
  bioavailability: 68.6%
[5]; IV
  AUC(0-t): 580 ng·h/mL
  Cmax: 1860 ng/mL
  half-life: 19.2 min
[5]; PO
  AUC(0-t): 397 ng·h/mL
  Cmax: 311 ng/mL
  half-life: 55.8 min
[4]
  Liver microsome T1-2 (min) Mouse: 1597.63 min
[3]
  Liver microsome T1-2 (min) Beagle dog: 358.15 min

## CC#C[C@H](Nc1c(Nc2ccc(Cl)c(C(=O)N(C)C)c2O)c(=O)c1=O)C1(C)CCCC1 [compound 114, (R)-6-chloro-2-hydroxy-N, N-dimethyl-3-((2-((1-(1-methylcyclopentyl)but-2-yn-1-yl)amino)-3,4-dioxocyclobut-1-en-1-yl)amino)benzamide]
[1]
  Liver microsome T1-2 (min) Human: 392.83 min
[2]
  Liver microsome T1-2 (min) Rat: 120.25 min
[4]
  Liver microsome T1-2 (min) Mouse: 361.28 min
[3]
  Liver microsome T1-2 (min) Beagle dog: 489.6 min

## CN(C)C(=O)c1nccc(Nc2c(N[C@@H](c3cccc(CF)n3)C3(C)CCCC3)c(=O)c2=O)c1O [compound 108, (R)-4-((2-(((6-(fluoromethyl)pyridin-2-yl)(1-methylcyclopentyl)methyl)amino)-3,4-dioxocyclobut-1-en-1-yl)amino)-3-hydroxy-N,N-dimethylpicolinamide]
[1]
  Liver microsome T1-2 (min) Human: 458.54 min
[2]
  Liver microsome T1-2 (min) Rat: 124.28 min
[3]
  Liver microsome T1-2 (min) Beagle dog: 63.57 min

## CN(C)C(=O)c1nccc(Nc2c(N[C@@H](c3ncc(F)cc3F)C3(C)CCCC3)c(=O)c2=O)c1O [compound 009, (R)-4-((2-(((3,5-difluoropyridin-2-yl)(1-methylcyclopentyl)methyl)amino)-3,4-dioxocyclobut-1-en-1-yl)amino)-3-hydroxy-N,N-dimethylpicolinamide]
[1]
  Liver microsome T1-2 (min) Human: 225.37 min
[2]
  Liver microsome T1-2 (min) Rat: 62.30 min
[4]
  Liver microsome T1-2 (min) Mouse: 178.84 min
[3]
  Liver microsome T1-2 (min) Beagle dog: 89.42 min

## CN(C)C(=O)c1nccc(Nc2c(N[C@@H](c3nc(Cl)ccc3F)[C@@]3(C)CC(F)(F)CO3)c(=O)c2=O)c1O [068B, 4-((2-(((S)-(6-chloro-3-fluoropyridin-2-yl)((R)-4,4-difluoro-2-methyltetrahydrofuran-2-yl)methyl)amino)-3,4-dioxocyclobut-1-en-1-yl)amino)-3-hydroxy-N,N-dimethylpicolinamide]
[1]
  Liver microsome T1-2 (min) Human: 995.19 min
[2]
  Liver microsome T1-2 (min) Rat: 570.62 min
[5]
  bioavailability: 23.4%
[5]; IV
  AUC(0-t): 1270 ng·h/mL
  Cmax: 3630 ng/mL
  half-life: 15 min
[5]; PO
  AUC(0-t): 298 ng·h/mL
  Cmax: 291 ng/mL
  half-life: 91.8 min
[4]
  Liver microsome T1-2 (min) Mouse: 65.23 min
[3]
  Liver microsome T1-2 (min) Beagle dog: 199.34 min

## Cc1cccnc1[C@H](Nc1c(Nc2ccc(Cl)c(C(=O)N(C)C)c2O)c(=O)c1=O)C1(C)CCCC1 [compound 063, (R)-6-chloro-2-hydroxy-N,N-dimethyl-3-((2-(((1-methylcyclopentyl)(3-methylpyridin-2-yl)methyl)amino)-3,4-dioxocyclobut-1-en-1-yl)amino)benzamide]
[1]
  Liver microsome T1-2 (min) Human: 296.47 min
[2]
  Liver microsome T1-2 (min) Rat: 20.71 min
[4]
  Liver microsome T1-2 (min) Mouse: ≥120 min
[3]
  Liver microsome T1-2 (min) Beagle dog: 202.25 min
